In patent US20250212892A1, “USE OF THERMALLY HYDROLYZED KERATIN PEPTIDE SOLUTION IN ENHANCING THE YIELD AND QUALITY OF TEA LEAVES” (CH Biotech R&D Co., Ltd., priority 2023, published 2025):

Test system: tea tree (Camellia Sinesis)
Test: Spring application (soil infusion, then leaf spray twice): tea shoot production and proportion of terminal facing leaves
Assay type: in vivo
Details: urea 200× dilution
From the text: The inventors defined a unit area of 30×30 cm^2 for harvesting tea shoot and measuring weights. The inventors further defined a percentage value of cease-growing bud weight relative to the total bud weight, as indication of the increased tea leaf production without advancing the bud-aging side-effect.
One of the experiments involves first soil infusion application one week after initial harvesting, then leaf-spraying of KHP-1 500× solution twice, first time at the one-bud-with-one-leaf stage and second time at one-bud-with-two-leaf stage. In addition to a CK group, another urea application group of 200× dilution (200 kg of water to 1 kg of urea) is also tabulated. The result is shown in FIG. 1A where the tea shoot's production for the KHP-1 500× group is 32.54 g in a 900 cm^2 harvest area, higher than that of the CK group (20.86 g) and urea group (28.69 g).
This is reflected in FIG. 1B.

For `NC(N)=O` [urea], the “tea shoot's production” value (900 cm^2 harvest area, FIG. 1A) was 28.69 g and the “proportion of terminal facing leaves” value (FIG. 1B) was 47.4%.
